Source: patent US20140309295A1, “ANTIEPILEPTIC, HYPOCHOLESTEROLEMIC AND NEUROPROTECTIVE COMPOUND” (NEURON BIOPHARMA, S.A., priority 2009, published 2014)

Columns and labels:
ApoB100 mice = test: Hypocholesterolemic effect, oral three months, endogenous hyperlipidemia model; type: in vivo; settings: 50 mg/kg oral, 3 months
Experimental: (§1) All the animals included for the experimental process were 6-month old female mice. The experiments were conducted strictly following the Guidance on the Operation of Animals (Scientific Procedures, Act. 1986). The animals had their respective quarantine period and were treated with maximum precaution to minimize possible contaminations for inoculations and handling.
After a conditioning to the diet, 50 mg/kg of NST0021 or NST0037 were orally administered to the mice for 3 months, three times a week, using in both cases 0.25% carboxy methylcellulose in physiological saline as a vehicle. The control group received this same vehicle. Before starting the treatments and at one, two and three months of starting them, retro-orbital blood extractions after fasting for 16 hours were carried out. The plasma was obtained from said blood, in which the total cholesterol (TC), free cholesterol (FC), cholesterol (EC), HDL-c, LDL-c, VLDL-c levels were evaluated by enzymatic and spectrophotometric techniques.

[1] = test system: CD1 mice inoculated with MPTP (subchronic); test: Subchronic MPTP model of Parkinson's disease in mice; type: in vivo
Experimental: as §1, with “were 12-week” for “were 6-month”, “old males of the CD1 strain.” for “old female mice.”, “contaminations during” for “contaminations for”
Twenty animals were used in this assay and the treatments were all conducted by intraperitoneal (i.p.) route with a volume of 100 μl, according to the following regimens: • i) PBS+MPTP+PBS regimen: 10 animals were initially treated with a daily dose for 2 days of PBS, from the second day onwards the animals were inoculated with 1 daily dose of MPTP at 30 mg/Kg for 5 days, at intervals of 2 hours by i.p. route. For the next 21 days they were administered 3 weekly doses of PBS. • ii) NST0037+MPTP+NST0037 regimen: 10 animals were initially treated with a daily dose for 2 days of NST0037 at 50 mg/kg, from the second day onwards the animals were inoculated with 1 daily dose of MPTP at 30 mg/Kg for 5 days, at intervals of 2 hours by i.p. route. For the next 21 days they were administered 3 weekly doses of NST0037 at 50 mg/kg.
Seven days before starting the treatments and at 7, 14 and 21 days post-inoculation of MPTP, the animals were subjected to a locomotor resistance test referred to as the Rotarod test for 2 minutes, recording the time the animals resisted walking over a cylinder which increased its speed from 4 to 40 r.p.m.
Once the treatment time of 21 days ended, the animals were sacrificed and the brains were dissected. The brain samples were processed and included in paraffin. For the analysis of the presence of dopaminergic neurons in the substantia nigra, the immunohistochemistry against the tyrosine-hydroxylase (TH) protein was performed in 5 μm thick sagittal sections.
Once the treatment time of 21 days ended, the animals were sacrificed and the brains were dissected. The brain samples were processed and included in paraffin. […]

zebrafish embryo = test: Biosafety in zebrafish embryo (OECD C15, semi-static, 9 days); type: in vivo, Danio rerio
Experimental: The fertilized eggs were obtained by natural mating of the zebrafish (Danio rerio, AB strain). A total of 8-10 pairs were used for each cross and a total of 200-250 eggs were generated on average per pair.
To assure exposure in the earliest stages of development, the eggs were quickly transferred (a minimum of 50 per condition) to another Petri dish with solutions of the compounds to be tested. […] Each experiment was performed in triplicate.
The studies were conducted in a total of 9 days post-fertilization, in which the treatment was renewed every day, thus conducting a semi-static assay.
The results at the end of the experiment allowed collecting the percentage of healthy larvae which reach the end of the experiment, defined as the number of live larvae and without symptoms of external physiopathological anomalies (morphological and/or behavioral), this being a parameter determining the biosafety of a substance under study and is complementary to the survival rates and to the LD50.
The anomalies recorded in the study are described below: • Intracranial thrombosis: a clot inside the blood vessel, in this case of any cerebral vessel. • Cardiac thrombosis: occurs in a cardiac vessel. • Cardiac edema (or hydrops): accumulation of fluid in the intercellular tissue space and also in the cavities of the organism. In the case of the heart, it causes the accumulation of fluid in the pericardial sac. • Malformation: a noticeable difference in the shape of the body or part of the body, or organ of the body (internal or external) compared with the average shape of the part in question.
The cardiac rhythm of the zebrafish embryos-larva was determined by means of visual analysis in stereomicroscopy, determining the heartbeat with the aid of a manual counter for a period of one minute.

[2] = test system: FVB/NHan mice inoculated with kainate (KA); test: Antiepileptic effect against kainate in mice (Racine scale); type: in vivo
Experimental: as §1, with “12-week” for “6-month”, “males of the FVB/NHan strain.” for “female mice.”
The animals were intraperitoneally inoculated with 25 mg/kg of kainate (KA) dissolved in PBS. Thirteen animals were pre-treated 24 and 0.5 hours before inoculation with KA by means of intraperitoneal injection with PBS (PBS+KA administration regimen) and 6 were pre-treated 24 and 0.5 hours before inoculation with KA by means of intraperitoneal injection with NST0037 at a dose of 50 mg/kg (NST0037+KA administration regimen). After the inoculation, the animals were individually housed in trays to monitor them. The maximum epilepsy level of the animals was recorded during the observation according to the Racine scale every ten minutes and for at least 120 minutes post-inoculation (m.p.i.).

CCC(CC)C(=O)O[C@H]1C[C@@H](C)C=C2C=C[C@H](C)[C@H](CC[C@@H]3C[C@@H](O)CC(=O)O3)[C@H]21 [NST0037, (1S,2S,6R,8S,8aR)-1,2,6,7,8,8a-hexahydro-3,7-dimethyl-8-[2-[(2R,4R)-tetrahydro-4-hydroxy-6-oxo-2H-pyran-2-yl]ethyl]-1-naphthalenyl-2-ethyl-butyrate]
FC and EC levels (ApoB100 mice): significant reduction of both FC and EC
HDL-c levels (ApoB100 mice): increase the HDL-c levels
LDL-c levels vs simvastatin (ApoB100 mice): reduced to a greater extent
cholesterol fractions (ApoB100 mice; three times a week, female apoB100 mice): reduced the different cholesterol fractions
motor resistance (Rotarod test) ([1]; NST0037+MPTP+NST0037, 50 mg/kg i.p., MPTP 30 mg/Kg daily 5 days, up to 21 days): prevents the motor deterioration of the animals
dopaminergic neurons (tyrosine-hydroxylase) in substantia nigra ([1]; NST0037+MPTP+NST0037, 21 days): larger number of TH-positive cells
lipid peroxidation (HNE) in neurons of substantia nigra ([1]; NST0037+MPTP+NST0037, 21 days): modest number of isolated neurons with HNE-positive labeling
percentage of larvae with malformations or anomalous appearance (zebrafish embryo; 0.2 mg/L): did not show significant toxicological effects
percentage of healthy larvae at the end of the experiment (zebrafish embryo; 0.06 and 0.2 mg/L, 9 days): more healthy larvae reaching the end of the experiment
LD50 (zebrafish embryo; first days post-treatment (up to day 2)): above the maximum dose evaluated
survival rate of embryos-larvae (zebrafish embryo; high dose (2 mg/L, FIG. 24)): caused the mortality of all the embryos of the assay
reduction of the cardiac rhythm vs controls (zebrafish embryo; increasing doses up to 2 mg/L, 72 hours post-treatment): statistically significant only at the dose of 2 mg/L
survival rate of embryos-larvae vs controls (zebrafish embryo; lower dose (FIG. 25: NST0037 0.2 mg/L)): did not cause a statistically significant reduction of the survival rate
epileptogenic symptoms from 100 m.p.i. ([2]; NST0037+KA regimen): caused the disappearance of the epileptogenic symptoms
epilepsy level on the Racine scale ([2]; NST0037+KA, 120 minutes observation): < 3
